Patent US12168673B2 (Mitopower, Inc., priority 2022, dated 2024)
Where two headings read alike, the source gives them in different places.

How the values were obtained:
[1] = system: primary human hepatocytes; test: NAD+ in primary human hepatocytes (Example 12); assay type: cell-based; settings: 10 μM, four hours of incubation
Description: (§1) Cryopreserved primary human hepatocytes, sourced from Lonza were cultured and were seeded into 6 well dishes with 0.5 million cells per well. […] The cells were later spun down and extracted. The supernatant was tested via LCMS/MS for NAD^+.

human hepatocytes [2] = test: Human hepatocyte stability
Description: (§8) 10 mM stock solution of test compound was prepared in DMSO and diluted to a concentration of 1 mM with DMSO. Working concentration of 2 μM was prepared by further dilution with PBS. Preincubation mixture of 150 μL of hepatocyte cell suspension (1,000,000 cells/mL, INVITROGRO HT medium buffer), was added to vials for preincubation for 10 min @37° C.
(§9) 150 μL of 2 μM working stock of the test compound was added to the cell suspension and incubated at @37 C at 500 rpm. The reaction was stopped at 0, 15, 30, 60 and 90 min by precipitating 50 μL of the incubation mixture with 150 μL of acetonitrile. Samples were vortexed for 5 min at 1200 rpm and centrifuged at 4000 rpm for 10 min. 150 μL of the supernatant was diluted with 150 μL of water and injected in MS system (SCIEX, API 4500 Q Trap) for analysis.

[3] = system: primary human hepatocytes; test: NAD+ in primary human hepatocytes at 250 μM (Example 10); assay type: cell-based; settings: four hours of incubation
Description: as §1

HepG2 cells = test: Cellular NAD+ levels in HepG2 cells, NAD cycling assay; assay type: cell-based; settings: for NAD+ level increase at the lowest concentration: HepG2, 10 μM
Description: HepG2 cells were seeded at densities of 1 million cells per well in a 6 well plate. The next day, cells were treated with test compounds for 4 hours and were harvested using the below protocol. Each well was washed once with 2 mL ice cold PBS which was removed and 400 μL 2M HClO4 (perchloric acid) was added to each well, which was scraped and the residue transferred to 1.5 mL tubes and spun down. 100 μL of the supernatant was transferred to a clean 1.5 mL vial and 150 μL KOH/MOPS 2M/0.6M (neutralization buffer) was added to each vial under vortex which was spun down. The pH was measured following the NAD cycling protocol.
NAD standards were prepared from 0 to 0.5 μM in water as per Table 7.
The cycling reaction was prepared as follows. 10 μl samples were added followed by water to bring the volume up to 25 μl. 25 μl of each standard was used in duplicates for the reaction. Then 50 μl of mix A (cycling mix) was added to the sample and standards. Mix A contained the following:
Reaction was initiated using 25 μL enzyme mix (15 U/ml of alcohol dehydrogenase+15 U/mL of malate dehydrogenase). The samples were incubated at 37° C. for 30 minutes in a water bath and the reaction terminated by heating in a water bath for 5 minutes at 80° C. Then 25 μl of the sample was used in the detection step. 100 μl mix B, which contains following components were added to the sample.
Reaction was initiated using a start reagent (prepared by mixing 10 μl of malate dehydrogenase and 10 μl of glutamate oxaloacetic transaminase in 1 ml of water. The reading were measured at 340 nm in a envision plate reader. The results are shown in FIGS. 4A-4D.

[4] = Human hepatocyte clearance; assay type: in vitro ADME; settings: human hepatocytes, 1 μM; for half-life at 1 μM: 0-90 min, read-out: T½; for hepatocyte CLint at 1 μM: read-out: Intrinsic Clearance (CL Int)
Description: (§2) A hepatocyte vial was taken out from the liquid nitrogen tank and was thawed in a water bath maintained at 37° C. The thawed cell suspension was transferred into a torsion tube containing 50 mL of thawing media (Xenotech). The thawing media containing hepatocytes was centrifuged at 1000 rpm for 5 min, the supernatant was discarded and the pellet was resuspended in 2 ml of Xenotech OptiIncubate Media. The cells were counted by using a haemocytometer after mixing an aliquot of cell suspension with equal volume of trypan blue. The cell suspension was diluted to a working density of 2 million cells with DMEM media without FBS/incubation media.
(§3) The assay was performed in duplicates (n=2). 150 μL of 2 million cell working stock of hepatocyte cell suspension was added to a 24 well plate and incubated in a 37° C. incubator, with speed of 500 RPM for 10 min. 150 μL of 2 μM working stock of test compound was incubated separately. The reaction at 0, 15, 30, 60 and 90 min was stopped by precipitating 20 μL of incubation mixture with 200 μL of acetonitrile containing internal standard. […] The supernatant was separated and diluted 1:1 with water before injecting in LC-MS/MS analysis.

human hepatocytes [5] = test: Human hepatocyte clearance; assay type: in vitro ADME
Description: as §2, §3

[6] = PK study in rats (plasma); assay type: in vivo; settings: for half-life: read-out: T1/2 (converted); for AUC(0-t): read-out: AUC0-1
Jurkat Cells = test: Cellular NAD+ levels in Jurkat cells (LCMS/MS); assay type: cell-based; settings: 30 μM, four hours of incubation
Description: Compounds 100, 101 and 102 were weighted out to prepare 60 μM stock solutions in RPMI media. 200 ng/mL solution of Rac-tenofovir d6 (Vivan Life-Sciences) was prepared in methanol (MeOH) and placed at −20° C. until use.
Jurkat Cells, sourced from NCCS Pune, were cultured in RPMI media containing FBS & Antibiotics. Cells from different flasks (90% confluent) were pooled into a 15 mL conical tube and centrifuged for 5 mins at 1200 rpm for 5 mins. The supernatant solution was discarded, and the pellet was washed with 5 mL sterile PBS (without Ca^2+ & Mg^2+). The tube was then centrifuged at 1200 rpm for 5 mins and the supernatant was discarded. The cell pellet was resuspended in 7 mL of RPMI media, and a cell count was done using 10 uL of the cell solution. 1.5 million cells from the cell solution were seeded into 1.5 mL microcentrifuge tubes. […] The tubes were placed in racks and gently swirled to mix the compounds into the media containing the cells. These tubes were then incubated for 4 hours in a 37° C. incubator at 5% CO2. After 4 hours of incubation the cells were spun down at 1000 rpm for 10 mins, the supernatant was discarded carefully, and cells were snap frozen in liquid nitrogen. When the samples were run, the extraction of the cells was on ice, cells were lysed using 20 uL deionized water and then ice cold 80% methanol containing the internal standard—Rac-Tenofovir D was added. The tubes were then vortexed at 2500 rpm for 8 minutes and then centrifuged at […] for 10 minutes. 150 uL of the supernatant was carefully transferred to HPLC vials and was analyzed for NAD^+ on the Abscised 4000 Q Trap LCMS/MS system. A C18, 3.5 μm, 2.1×100 mm, Bridge Column was used in the LC. The mobile phase consisted of 10 mM ammonium acetate with 0.1% acetic acid and 0.1% hexylamine as Solvent-A and 10 mM Ammonium acetate with 0.1% acetic acid and 0.1% hexylamine in 95/5 MeOH/H2O as Solvent-B. The gradient used was 0 mins-0.0% B, 0.5 mins-100% B, 1.5 mins-100% B, 3.0 mins-100% B, 3.1 mins-0.0% B, 7.0-STOP. The column flow rate was 0.5 mL/min. The sample injection volume was […].

Huh-7 Cells = test: Cellular NAD+ levels in Huh-7 cells (LCMS/MS); assay type: cell-based; settings: 125 μm, four hours of incubation
Description: Huh-7 Cells, sourced from NCCS Pune, were cultured in RPMI media containing FBS & Antibiotics. Cells from different flasks (80-90% confluent) were pooled into a 15 mL conical tube and centrifuged for 5 mins at 1200 rpm for 5 mins. The supernatant solution was discarded, and the pellet was washed with 5 mL sterile PBS (without Ca^2+ and Mg^2+). The tube was then centrifuged at 1200 rpm for 5 mins and the supernatant was discarded. The cell pellet was resuspended in 7 mL of RPMI media, and a cell count was done using 10 uL of the cell solution. 1.5 million cells from the cell solution were seeded into 1.5 mL microcentrifuge tubes. […] The tubes were placed in racks and gently swirled to mix the compounds into the media containing the cells. These tubes were then incubated for 4 hours in a 37° C. incubator at 5% CO2. After 4 hours of incubation the cells were spun down at 1000 rpm for 10 mins, the supernatant was discarded carefully, and cells were snap frozen in liquid nitrogen. When the samples were run, the extraction of the cells was on ice, cells were lysed using 20 uL deionized water and then ice cold 80% methanol containing the internal standard—Rac-Tenofovir D was added. The tubes were then vortexed at 2500 rpm for 8 minutes and then centrifuged at […] for 10 minutes. 150 uL of the supernatant was carefully transferred to HPLC vials and was analyzed for NAD^+ on the Abscised 4000 Q Trap LCMS/MS system. A C18, 3.5 μm, 2.1×100 mm, Bridge Column was used in the LC. The mobile phase consisted of 10 mM ammonium acetate with 0.1% acetic acid & 0.1% hexylamine as Solvent-A and 10 mM Ammonium acetate with 0.1% acetic acid and 0.1% hexylamine in 95/5 MeOH/H2O as Solvent-B. The gradient used was 0 mins-0.0% B, 0.5 mins-100% B, 1.5 mins-100% B, 3.0 mins-100% B, 3.1 mins-0.0% B, 7.0-STOP. The column flow rate was 0.5 mL/min. The sample injection volume was […].

human hepatocytes [7] = settings: 1 μM
Description: as §8, §9

in vitro = settings: human, plasma
Description: (§4) The test compounds were weighed and prepared as 10 mM stocks in 100% DMSO. 10 μM is the final test concentration for all compounds.
(§5) The samples were prepared by spiking test compound(s) in plasma at 10 μM final concentration. 200 μL of plasma containing the test compound was added into the donor well (RED Chamber) of the insert. Simultaneously 350 μL of dialysis buffer (1×PBS) was added into the receiver well (white chamber). Two measurements were made for each test compound. The plate was covered with a sealer and incubated at 37° C. degrees on an orbital shaker at 500 rpm for 5 hours.
(§6) After incubation, 25 μl of plasma (RED chamber) and 25 μl of buffer (white chamber) samples were separately collected into separate centrifugation tubes. Plasma and buffer samples were precipitated with 200 μL of 100% acetonitrile containing internal standards. 25 μl of T0 (T Zero) plasma samples (samples before 5 hours incubation) were collected (To samples were processed immediately after the preparation of plasma working stock solution. These samples serve as a measure for calculating the percentage recovery of the test compound and precipitated using 100% acetonitrile containing internal standards). The samples were vortexed at 1000 rpm for 5 min and centrifuged at 4000 rpm for 10 min. The supernatant was diluted 2-fold with water and injected into LC-MS/MS.
(§7) The % of Plasma bound/unbound fraction was calculated by the following equation: % Unbound or % free=100*(Fc/Tc); % Recovery=100 (Fc+Tc)/[…] where Tc=Total compound concentration as determined by the calculated concentration on the plasma side of the membrane (concentration in plasma chamber), Fc=Free compound concentration as determined by the calculated concentration on the buffer side of the membrane (concentration in buffer chamber) and T0=Total compound concentration as determined before dialysis.

Human Plasma Protein = test: in vitro
Description: as §4, §5, §6, §7

SMILES: COC(=O)[C@@H](C)N[P@](=O)(OC[C@H]1OC(OC(=O)c2cccnc2)[C@H](O)[C@@H]1O)Oc1ccccc1 (single isomer, unassigned) [Compound 103]
- NAD+ level increase compared to untreated cells [1]: statistically significant NAD^+ level increases
- % Parent Remaining (human hepatocytes [2]; 0 mins): 100%
- % Parent Remaining (human hepatocytes [2]; 15 mins): 63%
- % Parent Remaining (human hepatocytes [2]; 30 mins): 40%
- % Parent Remaining (human hepatocytes [2]; 60 mins): 15%
- % Parent Remaining (human hepatocytes [2]; 90 mins): 5%
- NAD+ level increase compared to untreated cells [3]: statistically significant NAD^+ level increases
- NAD+ level increase at the lowest concentration (HepG2 cells): statistically significant increase
- half-life at 1 μM [4]: 22.2 min
- hepatocyte CLint at 1 μM [4]: 31.3 µL/min/1e6 cells
- Remarks (clearance class) (human hepatocytes [5]): High

SMILES: COC(=O)[C@@H](C)N[P@@](=O)(OC[C@H]1OC(OC(=O)c2cccnc2)[C@H](O)[C@@H]1O)Oc1ccccc1 (single isomer, unassigned) [Compound 104]
- NAD+ level increase compared to untreated cells [1]: statistically significant NAD^+ level increases
- clearance in human hepatocytes (in words) (human hepatocytes [2]): medium clearance
- % Parent Remaining (human hepatocytes [2]; 0 mins): 100%
- % Parent Remaining (human hepatocytes [2]; 15 mins): 78%
- % Parent Remaining (human hepatocytes [2]; 30 mins): 65%
- % Parent Remaining (human hepatocytes [2]; 60 mins): 45%
- % Parent Remaining (human hepatocytes [2]; 90 mins): 24%
- NAD+ level increase compared to untreated cells [3]: statistically significant NAD^+ level increases
- NAD+ level increase at the lowest concentration (HepG2 cells): statistically significant increase
- NAD+ level increase compared to nicotinic acid (HepG2 cells; HepG2, all concentrations (10-250 μM)): statistically significant increase
- half-life at 1 μM [4]: 48.1 min
- hepatocyte CLint at 1 μM [4]: 14.4 µL/min/1e6 cells
- Remarks (clearance class) (human hepatocytes [5]): medium clearance

SMILES: O=C(O)c1cccnc1 [Nicotinic acid]
- Cmax ([6]; rat, plasma, iv, 40 mg/kg): 1240 ± 833 µM
- Tmax ([6]; rat, plasma, iv, 40 mg/kg): 15 min
- clearance ([6]; rat, plasma, iv, 40 mg/kg): 5.07 mL/min/kg
- half-life ([6]; rat, plasma, iv, 40 mg/kg, rats, Group 4: nicotinic acid 40 mg/kg IV): 26.9 ± 16.6 min
- AUC(0-t) ([6]; rat, plasma, iv, 40 mg/kg): 1080 ± 426 µM·h
- Vd ([6]; rat, plasma, iv, 40 mg/kg, read-out: Vss): 0.211 ± 0.156 L/kg
- Cmax ([6]; rat, plasma, po, 200 mg/kg): 519 ± 83.3 µM
- Tmax ([6]; rat, plasma, po, 200 mg/kg): 79.8 ± 34.8 min
- bioavailability ([6]; rat, plasma, po, 200 mg/kg): 29%
- half-life ([6]; rat, plasma, po, 200 mg/kg, rats, Group 3: nicotinic acid 200 mg/kg PO): 85.2 ± 25.8 min
- AUC(0-t) ([6]; rat, plasma, po, 200 mg/kg): 1680 ± 305 µM·h
- IV pharmacokinetics profile (in words) ([6]; rats, IV): No distribution phase
- NAD+ level increase compared to untreated cells (Jurkat Cells): showed statistical significance in terms of NAD^+ level increases
- NAD+ level increase compared to untreated cells (Huh-7 Cells): showed an increase

SMILES: CC(=O)CC(c1ccccc1)c1c(O)c2ccccc2oc1=O (stereo not drawn) [Warfarin, reference compound]
- % Parent Remaining (human hepatocytes [7]; 0 h): 100%
- % Parent Remaining (human hepatocytes [7]; 0.25 h): 91%
- % Parent Remaining (human hepatocytes [7]; 0.5 h): 89%
- % Parent Remaining (human hepatocytes [7]; 1 h): 96%
- % Parent Remaining (human hepatocytes [7]; 1.5 h): 96%
- fraction unbound at 5 h, 10 μM (in vitro; % Bound in plasma): 0.0044
- fraction unbound at 5 h, 10 μM (in vitro; % Unbound in plasma): 0.0054
- fraction unbound at 5 h, 10 μM (in vitro; Fraction unbound): 0.005
- Remarks (binding class) (Human Plasma Protein): High binding
- Remarks (clearance class) (human hepatocytes [5]): Low*
